Entries after “also recorded” stand apart in the source; their conditions may differ.
Tests used:
[1] = system: vulvo-vaginal mucous membrane; conditions: in vivo; cited from earlier work
[2] = system: vaginal mucous membrane / endometrium; conditions: 25 μg of 17β-estradiol per vaginal tablet, cited from earlier work
[3] = system: vaginal estrogenic receptors; conditions: cited from earlier work; for agonist/antagonist properties: estrogenic receptors; for effect on endogenous estradiol: in the presence of endogenous estrogen
[4] = plasma estradiol after vaginal administration (pharmacokinetic analysis); type: in vivo, human (patients)
Procedure: Pharmacokinetic analysis: From a pharmacokinetic viewpoint, the plasmic estradiol concentrations remained unquantifiable in the group of subjects after administration of low doses (2.5 μg and 5 μg) and in half of the subjects at a high dose (10 μg).
(§1) General conclusion: After a single vaginal administration of a soft capsule with 2.5 μg, 5 μg and 10 μg doses of 17β-estradiol, clinical tolerance was excellent for the group of six subjects included in the trial. Biological tolerance was also excellent.

[5] = plasma estrone after vaginal administration of 17β-estradiol; type: in vivo, human (patients)
Procedure: In all cases, the estrone concentrations never exceeded 30 pg/ml.
as §1

[6] = system: receptors with high estradiol affinity in the vaginal epithelium; conditions: cited from earlier work; for affinity for vaginal epithelium receptors (decreasing order): female
[7] = 10 μg, micronized free form, vaginal

Row | SMILES | local blood flow [1] | quantity of vaginal secretions [1] | transvaginal potential difference [1] | trophic effect in the vulvo-vaginal mucous membrane [1] | vaginal pH [1] | cytological, histological and clinical improvement in the vaginal mucous membrane ([2]; daily) | endometrial proliferation ([2]; daily) | systemic passage of 17β-estradiol ([2]; indicated by endometrial proliferation) | agonist/antagonist properties [3] | effect on endogenous estradiol [3] | vaginal absorption of estradiol from soft capsules ([4]; 2.5 μg to 10 μg doses of 17β-estradiol) | systemic passage [4, 7] | time of plasmic peak after administration [4, 7] | vaginal resorption of estradiol ([4]; capsules with 2.5 μg and 5 μg doses of 17β-estradiol) | plasmic estrone amounts after vs before treatment ([5]; capsule with 10 μg dose of 17β-estradiol, the other subjects) | estrone concentrations after vs before treatment ([5]; in general, after 17β-estradiol 2.5 μg, 5 μg and 10 μg, soft capsule) | proportionality between estrone Cmax or SSC and the administered dose ([5]; in vivo) | affinity for vaginal estrogenic receptors ([6]; in words) | affinity for vaginal epithelium receptors (decreasing order) [6] | intrinsic activity relative to 17β-estradiol ([3]; compared with 17β-estradiol)
1 | C[C@]12CC[C@@H]3c4ccc(O)cc4CC[C@H]3[C@@H]1CC[C@@H]2O [17β-estradiol] | increase | increase | increase the transvaginal potential difference | recognized and has been widely described | reduce the vaginal pH | desired cytological, histological and clinical improvement | endometrial proliferation was noted in certain patients | systemic passage | physiological estrogenic agonist; also recorded: pure agonist; also recorded: complete agonist | adding effects in the presence of endogenous estrogen | substantially zero | only slight systemic passage is observed | about one | zero | comparable with the amounts measured before treatment | of the same order of magnitude as those measured before treatment | no proportionality | high affinity | 17β-estradiol>estriol>estrone | –
2 | C[C@]12CC[C@@H]3c4ccc(O)cc4CC[C@H]3[C@@H]1C[C@@H](O)[C@@H]2O [estriol] | – | – | – | – | – | – | – | – | partially agonist properties and even antagonist properties | antagonistic effect on endogenous estradiol | – | – | – | – | – | – | – | – | 17β-estradiol>estriol>estrone | less active
3 | C[C@]12CC[C@@H]3c4ccc(O)cc4CC[C@H]3[C@@H]1CCC2=O [estrone] | – | – | – | – | – | – | – | – | – | – | – | – | – | – | – | – | – | – | 17β-estradiol>estriol>estrone | –
